Measured values published in patent US12594267B2, “Capsid inhibitors for the treatment of HIV” (Gilead Sciences, Inc., priority 2018, dated 2026).
Where two headings read alike, the source gives them in different places.

Test: PK after subcutaneous administration of solutions in rats
Type: in vivo, Wistar Han rat
Settings: for Plasma concentration: 0 h
Method: Formulations containing the compound of Formula (Ia) were prepared as aqueous solutions or oral formulations and administered subcutaneously to rats, dogs, cynomolgus monkey, and/or rhesus monkey.
A solution of the compound of Formula (Ia) in 10% ethanol, 13% water, and 77% PEG 200 (400 mg/mL) was prepared. The solution was administered subcutaneously to dogs at a dose of 12 mg/kg and rats at a dose of 50 mg/kg and the pharmacokinetic (PK) profile was determined. […] In both species, plasma concentrations of the compound of Formula (Ia) were maintained above the target trough concentration of 20 nM (corresponding to an IQ of 5) for at least 84 days (12 weeks).
A solution of the free acid of the compound of Formula (Ia) in 15% water and 85% PEG 300 (300 mg/mL) was prepared. The solution was administered subcutaneously to male Wistar Han rats at a dose level of 50 mg/kg and dose volume of 0.167 mL/kg and the pharmacokinetic (PK) profile was determined.
A 300 mg/ml solution of a compound of Formula (Ia) having 9.8 w/w % water, 65.0 w/w % PEG 300, and 25.2 w/w % of the compound of Formula (Ia) was prepared. The solution was administered subcutaneously to rats at a dose of 50 mg/kg and to dogs at a dose of 12 mg/kg and the pharmacokinetic (PK) profile was determined. […] In the rat, plasma concentrations of the compound of Formula (Ia) were maintained above the target trough concentration of 20 nM for at least 168 days (24 weeks). In the dog, plasma concentrations of the compound of Formula (Ia) were maintained above the target trough concentration of 20 nM for at least 84 days (12 weeks).
(§1) A 150 mg/ml solution of a compound of Formula (Ia) having 27.92 w/w % water, 58.04 w/w % PEG 300, 13.47 w/w % of a compound of Formula (Ia), and 1.1 w/w % NaOH was prepared. The solution was administered subcutaneously to rats at a dose of 50 mg/kg and to dogs at a dose of 12 mg/kg and the pharmacokinetic (PK) profile was determined. […] In the rat, plasma concentrations of the compound of Formula (Ia) were maintained above the target trough concentration of 20 nM for at least 126 days (18 weeks). In the dog, plasma concentrations of the compound of Formula (Ia) were maintained above the target trough concentration of 20 nM for at least 56 days (8 weeks).
as §1, with “300” for “150”, “23.2” for “27.92”, “50.0” for “58.04”, “25.7” for “13.47”
A 50 mg/ml solution of a compound of Formula (Ia) having 30.07 w/w % water, 64.40 w/w % PEG 300, 4.68 w/w % of a sodium salt of the compound of Formula (Ia), and 0.85 w/w % poloxamer 188 was prepared. The solution was administered subcutaneously to rats at a dose of 50 mg/kg and to dogs at a dose of 6 mg/kg and the pharmacokinetic (PK) profile was determined. […] In the rat, plasma concentrations of the compound of Formula (Ia) were maintained above the target trough concentration of 20 nM for at least 28 days (4 weeks). In the dog, plasma concentrations of the compound of Formula (Ia) were maintained above the target trough concentration of 20 nM for at least 14 days (2 weeks).
A 75 mg/ml solution of a compound of Formula (Ia) having 29.21 w/w % water, 62.55 w/w % PEG 300, 6.97 w/w % of a sodium salt of the compound of Formula (Ia), and 1.68 w/w % poloxamer 188 was prepared. The solution was administered subcutaneously to rats at a dose of 50 mg/kg and to dogs at a dose of 6 mg/kg and the pharmacokinetic (PK) profile was determined. […]

[1] = male, Wistar Han, rat, plasma, sc, 50 mg/kg, rat #3, SC 50 mg/kg, 300 mg/mL in 15% water/85% PEG 300
[2] = male, Wistar Han, rat, plasma, sc, 50 mg/kg, rat mean, n=3, SC 50 mg/kg, 300 mg/mL in 15% water/85% PEG 300
[3] = rat, SC 50 mg/kg, 75 mg/mL solution (w/w %: 29.21 water, 62.55 PEG 300, 6.97 sodium salt of Formula (Ia), 1.68 poloxamer 188), mean ± SD, n=3
[4] = rat, SC 50 mg/kg, 125 mg/mL solution (w/w %: 27.51 water, 58.92 PEG 300, 11.48 sodium salt of Formula (Ia), 2.09 poloxamer 188), mean ± SD, n=3
[5] = rat, SC 50 mg/kg, 150 mg/mL solution (w/w %: 26.6 water, 56.97 PEG 300, 13.39 Formula (Ia), 0.57 NaOH, 2.49 poloxamer 188), mean ± SD, n=3
[6] = rat, SC 50 mg/kg, 300 mg/mL solution (w/w %: 9.8 water, 65.0 PEG 300, 25.2 Formula (Ia)), mean ± SD, n=3
[7] = rat, SC 50 mg/kg, 300 mg/mL solution (w/w %: 21.97 water, 47.05 PEG 300, 25.21 Formula (Ia), 1.08 NaOH, 4.69 poloxamer 188), mean ± SD, n=3

CC(C)(C#Cc1ccc(-c2ccc(Cl)c3c(NS(C)(=O)=O)nn(CC(F)(F)F)c23)c([C@H](Cc2cc(F)cc(F)c2)NC(=O)Cn2nc(C(F)(F)F)c3c2C(F)(F)[C@@H]2C[C@H]32)n1)S(C)(=O)=O [Formula (Ia), N—((S)-1-(3-(4-chloro-3-(methylsulfonamido)-1-(2,2,2-trifluoroethyl)-1H-indazol-7-yl)-6-(3-methyl-3-(methylsulfonyl)but-1-yn-1-yl)pyridin-2-yl)-2-(3,5-difluorophenyl)ethyl)-2-((3bS,4aR)-5,5-difluoro-3-(trifluoromethyl)-3b,4,4a,5-tetrahydro-1H-cyclopropa[3,4]cyclopenta[1,2-c]pyrazol-1-yl)acetamide]
concentration at 96 h [1]: 85.2 nM
concentration at 168 h [1]: 137 nM
concentration at 336 h [1]: 284 nM
concentration at 504 h [1]: 281 nM
concentration at 672 h [1]: 304 nM
concentration at 840 h [1]: 302 nM
concentration at 1008 h [1]: 289 nM
concentration at 1344 h [1]: 278 nM
concentration at 1680 h [1]: 200 nM
concentration at 1 h (male, Wistar Han, rat, plasma, sc, 50 mg/kg, rat mean, n=3, 1 h, SC 50 mg/kg, 300 mg/mL in 15% water/85% PEG 300): 8.6 nM
concentration at 3 h (male, Wistar Han, rat, plasma, sc, 50 mg/kg, rat mean, n=3, 3 h, SC 50 mg/kg, 300 mg/mL in 15% water/85% PEG 300): 21.5 nM
concentration at 8 h (male, Wistar Han, rat, plasma, sc, 50 mg/kg, rat mean, n=3, 8 h, SC 50 mg/kg, 300 mg/mL in 15% water/85% PEG 300): 32.2 nM
concentration at 24 h (male, Wistar Han, rat, plasma, sc, 50 mg/kg, rat mean, n=3, 24 h, SC 50 mg/kg, 300 mg/mL in 15% water/85% PEG 300): 48.2 nM
concentration at 48 h (male, Wistar Han, rat, plasma, sc, 50 mg/kg, rat mean, n=3, 48 h, SC 50 mg/kg, 300 mg/mL in 15% water/85% PEG 300): 70.6 nM
concentration at 72 h (male, Wistar Han, rat, plasma, sc, 50 mg/kg, rat mean, n=3, 72 h, SC 50 mg/kg, 300 mg/mL in 15% water/85% PEG 300): 67.5 nM
concentration at 96 h [2]: 75.8 nM
concentration at 168 h [2]: 137 nM
concentration at 336 h [2]: 272 nM
concentration at 504 h [2]: 292 nM
concentration at 672 h [2]: 312 nM
concentration at 840 h [2]: 313 nM
concentration at 1008 h [2]: 282 nM
concentration at 1344 h [2]: 253 nM
concentration at 1680 h [2]: 189 nM
AUC(0-t) (male, Wistar Han, rat, plasma, sc, 50 mg/kg, rat, single SC 50 mg/kg, 300 mg/mL free acid in 85:15 w/w PEG 300:water, mean ± SD, n=3, read-out: AUC0-168h): 13.3 ± 0.3 µM·h
AUC(0-t) (male, Wistar Han, rat, plasma, sc, 50 mg/kg, rat, single SC 50 mg/kg, 300 mg/mL free acid in 85:15 w/w PEG 300:water, mean ± SD, n=3, read-out: AUC0-336h): 47.6 ± 1.2 µM·h
AUC(0-t) (male, Wistar Han, rat, plasma, sc, 50 mg/kg, rat, single SC 50 mg/kg, 300 mg/mL free acid in 85:15 w/w PEG 300:water, mean ± SD, n=3, read-out: AUC0-672h): 146 ± 6 µM·h
Plasma concentration (rat #1, SC 50 mg/kg, 300 mg/mL in 15% water/85% PEG 300): BLQ
Plasma concentration (rat #2, SC 50 mg/kg, 300 mg/mL in 15% water/85% PEG 300): BLQ
Plasma concentration (rat #3, SC 50 mg/kg, 300 mg/mL in 15% water/85% PEG 300): BLQ
Time plasma concentrations maintained above the target trough concentration of 20 nM (rat, SC 50 mg/kg, 50 mg/mL solution (w/w %: 30.07 water, 64.40 PEG 300, 4.68 sodium salt of Formula (Ia), 0.85 poloxamer 188)): at least 28 days
AUC0-28d (rat, SC 50 mg/kg, 50 mg/mL solution (w/w %: 30.07 water, 64.40 PEG 300, 4.68 sodium salt of Formula (Ia), 0.85 poloxamer 188), mean ± SD, n=3): 643 ± 75 µM·h
Time plasma concentrations maintained above the target trough concentration of 20 nM (rat, SC 50 mg/kg, 75 mg/mL solution (w/w %: 29.21 water, 62.55 PEG 300, 6.97 sodium salt of Formula (Ia), 1.68 poloxamer 188)): at least 42 days
AUC0-7d [3]: 241 ± 22 µM·h
AUC0-28d [3]: 690 ± 32 µM·h
Time plasma concentrations maintained above the target trough concentration of 20 nM (rat, SC 50 mg/kg, 100 mg/mL solution (w/w %: 28.36 water, 60.73 PEG 300, 9.23 sodium salt of Formula (Ia), 1.68 poloxamer 188)): at least 28 days
AUC0-28d (rat, SC 50 mg/kg, 100 mg/mL solution (w/w %: 28.36 water, 60.73 PEG 300, 9.23 sodium salt of Formula (Ia), 1.68 poloxamer 188), mean ± SD, n=3): 716 ± 62 µM·h
Time plasma concentrations maintained above the target trough concentration of 20 nM (rat, SC 50 mg/kg, 125 mg/mL solution (w/w %: 27.51 water, 58.92 PEG 300, 11.48 sodium salt of Formula (Ia), 2.09 poloxamer 188)): at least 28 days
AUC0-7d [4]: 153 ± 38 µM·h
AUC0-28d [4]: 673 ± 67 µM·h
Time plasma concentrations maintained above the target trough concentration of 20 nM (rat, SC 50 mg/kg, 150 mg/mL solution (w/w %: 26.6 water, 56.97 PEG 300, 13.39 Formula (Ia), 0.57 NaOH, 2.49 poloxamer 188)): at least 98 days
AUC0-98d [5]: 949 ± 114 µM·h
AUC0-112d [5]: 963 ± 102 µM·h
Time plasma concentrations maintained above the target trough concentration of 20 nM (rat, SC 50 mg/kg, 150 mg/mL solution (w/w %: 27.92 water, 58.04 PEG 300, 13.47 Formula (Ia), 1.1 NaOH)): at least 126 days
AUC0-98d (rat, SC 50 mg/kg, 150 mg/mL solution (w/w %: 27.92 water, 58.04 PEG 300, 13.47 Formula (Ia), 1.1 NaOH), mean ± SD, n=3): 801 ± 119 µM·h
Time plasma concentrations maintained above the target trough concentration of 20 nM (rat, SC 50 mg/kg, 300 mg/mL solution (w/w %: 9.8 water, 65.0 PEG 300, 25.2 Formula (Ia))): at least 168 days
AUC0-98d [6]: 531 ± 30 µM·h
AUC0-168d [6]: 730 ± 55 µM·h
Time plasma concentrations maintained above the target trough concentration of 20 nM (rat, SC 50 mg/kg, 300 mg/mL solution (w/w %: 21.97 water, 47.05 PEG 300, 25.21 Formula (Ia), 1.08 NaOH, 4.69 poloxamer 188)): at least 98 days
AUC0-98d [7]: 928 ± 175 µM·h
AUC0-140d [7]: 948 ± 169 µM·h
Time plasma concentrations maintained above the target trough concentration of 20 nM (rat, SC 50 mg/kg, 300 mg/mL solution (w/w %: 23.2 water, 50.0 PEG 300, 25.7 Formula (Ia), 1.1 NaOH)): at least 126 days
AUC0-126d (rat, SC 50 mg/kg, 300 mg/mL solution (w/w %: 23.2 water, 50.0 PEG 300, 25.7 Formula (Ia), 1.1 NaOH), mean ± SD, n=3): 698 ± 13 µM·h
Time plasma concentrations maintained above the target trough concentration of 20 nM (rat, SC 50 mg/kg, 400 mg/mL solution in 10% ethanol, 13% water, 77% PEG 200): at least 84 days
AUC0-84d (rat, SC 50 mg/kg, 400 mg/mL solution in 10% ethanol, 13% water, 77% PEG 200, mean ± SD, n=3): 404 ± 139 µM·h
AUC0-1680h (rat, single SC 50 mg/kg, 300 mg/mL free acid in 85:15 w/w PEG 300:water, mean ± SD, n=3): 412 ± 21 µM·h
